According to patent US9040019B2, “Methods of detecting myelin basic protein” (General Electric Company, priority 2012, dated 2015):

How the values were obtained:
[1] = Measurement of optical properties of the agents (absorbance and fluorescence emission); format: physicochemical; details: in DMSO; for Absorbance Maximum / Emission Maximum / Stoke shift: nerve labeling agents; for Abs (maximal absorbance wavelength) / Em (maximal fluorescence emission wavelength): compounds lacking nerve binding
Experimental: The flurophores were dissolved in dimethylsulfoxide (DMSO) to make a 10 mM stock solution. An aliquot was taken to prepare a 10-100 μM flurophore solution in methanol, water, or DMSO. Optical measurements from the three solvents were taken. Absorbance spectra were measured using a PerkinElmer Lambda™ 20 UV/VIS spectrometer (PerkinElmer, Waltham, Mass.). Emission spectra were generated using a PTI steady state fluorimeter (Photon Technology International, Birmingham, N.H.). The stoke shift for nerve labeling agents on Table 3 are greater than 100 nm.

[2] = tested on: sciatic nerve tissue sections; assay: Ex vivo binding of nerve labelling agents to sciatic nerve tissue sections (fluorescence microscopy); set-up: species or system male Sprague Dawley (SD) rats; details: 10 μM or 20 μM agent, 1 hour incubation, compared to control tissue without agent
Experimental: For ex vivo histological evaluation, various nerves including sciatic, femoral and trigeminal were harvested from male Sprague Dawley (SD) rats. Tissue was fixed by perfusion and/or post-fixed with formalin. Nerves were then flash-frozen using methanol and dry ice in OCT media. In some cases, polyvinylidene fluoride membranes were used to help keep the nerves vertical in the OCT media. Thin sections (5-10 microns) were sliced on a Leica microtome and stored in a −80° C. freezer prior to staining with antibodies or fluorescent dyes.
Nerve sections were prepared as described above. At the time of staining the slides were removed from −80° C. and allowed to come to room temperature. The nerves were fixed in neutral buffered formalin (10%) for 5 min after which the slides were rinsed in 1×PBS (3×, 5 min/each). 10 μM, or 20 μM each Formula II, Formula III, Formula IV, Formula V, or Formula VI was added onto the tissue in a formulation containing 10% Cremophor EL and 60% rat serum made in 1×PBS. The slides were incubated for 1 hour in a dark, moist/humid chamber at room temperature after which they were washed 3 times for 5 min/each in 1×PBS, cover-slipped, and imaged using the appropriate filter cube on a Zeiss Axioimager at 200× magnification.

nerves = assay: Pre-clinical fluorescence in vivo imaging of nerves in a large rodent model; set-up: species or system Sprague Dawley (SD) rat; details: 0.5 hours post injection
Experimental: (§1) All procedures were approved by the Institutional Animal Care and Use Committee (IACUC) at GE Global Research. Male CD-1 mice ranging in body weight from 25-30 g and SD rats (250-350 g) were purchased from Charles River Laboratories (Wilmington, Mass.) and housed at 22-23° C. on a 12-hour light/dark cycle. On the day of the experiment, rodents were anesthetized using 2-4% isofluorane and given a single tail vein injection of either imaging agent in formulation or formulation excipients alone. […]
(§2) In vivo imaging consisted of detailed fluorescence emission characterization and surgical imaging using a Zeiss Lumar™ imaging system (Carl Zeiss Inc. Thornwood, N.Y.) with coupled multispectral imaging camera (Nuance camera; CRI, Woburn, Mass.) or AxioCam™ (Carl Zeiss Inc. Thornwood, N.Y.). […] A variety of excitation filters were used to characterize the in vivo fluorescence of these agents. […] Fluorescence emission data was then recorded at wavelengths ranging from 420 to 720 nm at 10 nm steps using the attached CRI-Nuance™ camera (Cambridge Research and Instrumentation Inc., Wobur, Mass.) or using a 500 nm-long pass filter on the AxioCam. Fluorescence images were collected using exposure times of 5 seconds in both control and agent injected animals for normalization. […]

[3] = tested on: nerve, muscle, and adipose tissue; assay: Kinetics of clearance, tissue fluorescence after IV injection; format: in vivo, adult male CD-1 mice; details: 3.33 mg/kg IV; 0.5, 1, 2 and 3 hours post injection
Experimental: as §1, §2

SMILES	Absorbance Maximum [1]	Emission Maximum [1]	Stoke shift [1]	Ex vivo binding to sciatic nerve tissue sections (fluorescence signal) [2]	Abs (maximal absorbance wavelength) [1]	Em (maximal fluorescence emission wavelength) [1]	other results
COc1cc(/C=C/C2=CC(=C(C#N)C#N)C=C(C)O2)ccc1NCc1ccc(N)cc1 [Formula IV]	492 nm	642 nm	150 nm				
CC1=CC(=C(C#N)C#N)C=C(/C=C/c2ccc(NCCO)cc2)O1 [V]				fluorescence signal is evident			
CC1=CC(=C(C#N)C#N)C=C(/C=C/c2ccc(NCCO)cc2)O1 [Formula V]	484 nm	618 nm	134 nm				
COc1cc(/C=C/C2=CC(=C(C#N)C#N)C=C(C)O2)ccc1N [VI]				fluorescence signal is evident			
CC1=CC(=C(C#N)C#N)C=C(/C=C/c2ccc(N)cc2)O1 [Formula II]	478 nm	607 nm	129 nm	fluorescence signal is evident			Nerve visibility in fluorescence imaging (nerves; 8.33 mg/kg IV): Visible nerves present; Nerve visibility in fluorescence imaging (nerves; 16.67 mg/kg IV): Visible nerves present; Maximum tissue-specific fluorescence intensity over time post injection (nerve, muscle, adipose tissue) [3]: decreases with increasing time post injection
COc1cc(/C=C/C2=CC(=C(C#N)C#N)C=C(C)O2)ccc1NCc1ccc(N)cc1 [IV]				fluorescence signal is evident			
CC1(C)OC(=C(C#N)C#N)C(C#N)=C1/C=C/c1ccc(N)cc1 [D]					574 nm	621 nm	
COc1cc(/C=C/C2=CC(=C(C#N)C#N)C=C(C)O2)ccc1N [Formula VI]	478 nm	631 nm	153 nm				

Continued, in another order:

Absorbance Maximum [1]	Emission Maximum [1]	Stoke shift [1]	Ex vivo binding to sciatic nerve tissue sections (fluorescence signal) [2]	Abs (maximal absorbance wavelength) [1]	Em (maximal fluorescence emission wavelength) [1]	SMILES	other results
491 nm	623 nm	132 nm				CC1=CC(=C(C#N)C#N)C=C(/C=C/c2ccc(N(CCO)CCO)cc2)O1 [Formula III]	
				596 nm	656 nm	CC1(C)OC(=C(C#N)C#N)C(C#N)=C1/C=C/c1ccc(N(CCO)CCO)cc1 [F]	
			fluorescence signal is evident			CC1=CC(=C(C#N)C#N)C=C(/C=C/c2ccc(N(CCO)CCO)cc2)O1 [III]	
				480 nm	562 nm	CC1(C)OC(=O)C(C#N)=C1/C=C/c1ccc(N)cc1 [A]	
				590 nm	636 nm	CC1(C)OC(=C(C#N)C#N)C(C#N)=C1/C=C/c1ccc(NCCO)cc1 [E]	
				505 nm	591 nm	CC1(C)OC(=O)C(C#N)=C1/C=C/c1ccc(N(CCO)CCO)cc1 [C]	
				494 nm	578 nm	CC1(C)OC(=O)C(C#N)=C1/C=C/c1ccc(NCCO)cc1 [B]	
